The test system of one experiment is SHR-SP isolated aorta. Kind of experiment: vasoactivity of SHR-SP isolated aorta (ND, HSFD and after chronic treatment). The conditions noted are these: for EC50: Rattus norvegicus. On the set-up: species or system rat. On the procedure:
In separate studies, endothelial function was assessed following chronic (7 week) BAY 60-4552 or GSK2181236A treatment in SHR-SP on HSFD. SHR-SP fed either normal or HSFD served as controls. Rats were anesthetized and thoracic aorta were isolated and treated with KCl and phenylephrine as described above. Cumulative concentration-response curves to phenylephrine were obtained by adding 0.5 log unit increments (1 nM to 3 μM). Following several washes with KHB, each vessel was contracted to equilibrium with 0.3 μM phenylephrine and tone was reversed by adding cumulative amounts of carbachol at 0.5 log unit intervals (10 nM to 30 μM). Following several KHB washes, the tissues were again contracted to equilibrium with 0.3 μM phenylephrine and tone was reversed by adding cumulative amounts of SNP at 0.5 log unit intervals (0.1 nM to 3 μM). In separate tissues from both the normal and HSFD SHR-SP control groups, the direct vasodilatory effects of BAY 60-4552 and GSK2181236A were investigated. Contractile tone induced by 0.3 μM phenylephrine was reversed by adding cumulative concentrations of BAY 60-4552 or GSK2181236A to the tissue baths at log increments (0.1 nM to 10 μM).

A further experiment relates to dogs. On the set-up: method as in Korkmaz et al., 2009. The conditions noted are these: administered 5 min prior to reperfusion following 60 min global cardiac ischemia; ref Korkmaz et al., 2009; cited from earlier work.
The next experiment concerns rat hearts. On the set-up: method as in Krieg et al., 2009. The conditions noted are these: administered 5 min prior to reperfusion following 30 min regional ischemia; ref Krieg et al., 2009; cited from earlier work.
For the next experiment, the system named is rabbit hearts. On the set-up: method as in Krieg et al., 2009; Cohen et al., 2010. Particulars: administered 5 min prior to reperfusion following 30 min regional ischemia; ref Krieg et al., 2009; Cohen et al., 2010; cited from earlier work.

Where two headings read alike, the source gives them in different places.

We go through three compounds from publication PMC3389674, “Comparison of Soluble Guanylate Cyclase Stimulators and Activators in Models of Cardiovascular Disease Associated with Oxidative Stress” (Frontiers in Pharmacology, 2012).

As to `CNC[C@H](O)c1cccc(O)c1` [Phenylephrine, phenylephrine], the concentration giving a half-maximal response (EC50) came to 72 ± 11 nM in the experiment on SHR-SP isolated aorta (aorta from HSFD SHR-SP, read-out: Phenylephrine EC50 (contraction)) and 67 ± 6 nM in the experiment on SHR-SP isolated aorta (aorta from ND SHR-SP, read-out: Phenylephrine EC50 (contraction)). Also, the “Phenylephrine Emax” value in the experiment with SHR-SP isolated aorta (aorta from HSFD SHR-SP) worked out at 83 ± 10 % KCl; in the experiment with SHR-SP isolated aorta (aorta from ND SHR-SP) it was 90 ± 4 % KCl.
For `O=C(O)CCCCN(CCc1ccccc1OCc1ccc(CCc2ccccc2)cc1)Cc1ccc(C(=O)O)cc1` [BAY 58-2667], in the experiment on dogs, the cardiac function entry is reported as “improved cardiac function”. Also, the infarct size result in the experiment with rat hearts and with rabbit hearts was “decreased infarct size” in each case.
As to `C[N+](C)(C)CCOC(N)=O` [Carbachol, carbachol], the concentration for a half-maximal effect (EC50) with SHR-SP isolated aorta (aorta from HSFD SHR-SP, read-out: Carbachol EC50 (vasodilation)) came out at 260 ± 74 nM; with SHR-SP isolated aorta (aorta from ND SHR-SP, read-out: Carbachol EC50 (vasodilation)) it was 119 ± 15 nM. Further, the results for the “Carbachol Emax” value in the experiment on SHR-SP isolated aorta (aorta from HSFD SHR-SP) and with SHR-SP isolated aorta (aorta from ND SHR-SP) were 47 ± 11 % reversal of PE tone and 85 ± 3 % reversal of PE tone, respectively.
